Results as given in US10017741B2, “Compositions and methods for obtaining enriched mesenchymal stem cell cultures” (StemCell Technologies Inc., priority 2013, dated 2018).
Entries after “also recorded” stand apart in the source; their conditions may differ.

How the values were obtained:
26 other kinases = settings: cited from earlier work
mouse CB-MSC cultures = assay: Osteogenic and adipogenic differentiation of mouse CB-MSC; assay type: cell-based
[1] = system: CB-MSCs (CD45−/CD29+/Sca1+); assay: Total cell count with flow cytometry, CB-MSC cultures; assay type: cell-based, mouse
Procedure: (§1) d. Flow Cytometry Analysis • 1. Cultures of BM and CB-derived cells were trypsinized for 10 minutes and an equal volume of complete medium was added to cultures to stop trypsin activity • 2. Cell suspension was filtered through a 40 μm strainer, and cells counted using a hemocytometer • 3. Suspension was spun down at 300×g for 5 minutes. • 4. Supernatant was removed and cell pellet resuspended in FACS buffer (PBS with 2% FBS and 1 mM EDTA) • 5. A total of 1×10^5 cells in 300 μL FACS buffer was used for each flow cytometry analysis tube, including unstained, viability, compensation, and isotype controls. • 6. Cell suspensions were stained with fluorophore-labeled antibodies against CD45, CD11b, and Sca1, CD29, and viability dye. • 7. Cell suspensions were analyzed on a flow cytometer using compensation and isotype control to determine laser voltage and gating. • 8. Samples were gated on viable CD45^+ cells and 10,000 events per sample were collected. Alternatively, cells were gated on viable CD45^− cells and out of this gate the proportion of CD29+/Sca1^+ cells obtained.
(§2) Prior to flow cytometry, control and GW2580-treated cultures of BM- and CB-MSC were dissociated from tissue culture flasks by trypsinization and the total number of cells counted with the aid of a hemocytometer. Flow cytometry analysis was performed and the ratio of CD45^− cells and CD45^−/CD29^+/Sca1^+ cells applied to the total number of cells to obtain the actual number of these cells in culture (Table 2).

[2] = system: BM-derived cultures (macrophage contamination, MSC morphology); assay: Images of BM-derived expansion cultures; assay type: cell-based, mouse; settings: for macrophage contamination and MSC enrichment (images): BM
Procedure: (§3) c. Expansion of Human BM and Mouse BM and CB-Derived Cells Assay • 1. […] Cultures were allowed to grow for 10-14 days until adherent cells achieved 70 to 80% confluence. Mouse cultures were maintained under normal (5% CO2) or hypoxic conditions (5% CO2/5% O2) at 37 C in a cell culture incubator. Human cultures were maintained under 5% CO2 at 37 C in a humidified cell culture incubator. • 3. Adherent cells were passaged by releasing cultures from flask. Cultures were washed with 5 mL PBS and then 5 mL of 0.25% trypsin solution ([…] catalogue #07901) was added and the flasks incubated for 10 min at 37 C. To each flask, 5 mL complete medium was added to stop trypsin activity. • 4. Released cells were collected into a tube and centrifuged at 300×g for 5 minutes. • 5. Cells were resuspended in 2 mL of medium and counted using a hemocytometer. • 6. […] P1 cultures were incubated until they reached 70 to 80% confluence. • 8. Passaged cultures can be used at any time from P0 to P10 as needed for different applications.

human BM-derived MSCs = assay: Adipogenic and osteogenic differentiation of human BM-derived MSCs; assay type: cell-based; settings: human BM-MSC expanded to P2 in 1 μM, 3 weeks differentiation, Oil red O / silver nitrate
Procedure: as §3
BM-derived cultures were isolated as described above and expansion assays setup as described above. […] At the end of P2, cell were dissociated by trypsin digestion and replated at 3×10^4 cells/cm^2 in 12-well plates for differentiation assays. Differentiation cultures were maintained for 3 weeks in adipogenic or osteogenic differentiation media. […]

[3] = system: CB-derived cultures (macrophage contamination, MSC morphology); assay: Images of CB-derived expansion cultures; assay type: cell-based, mouse; settings: for macrophage contamination and MSC enrichment (images): CB
Procedure: as §3

[4] = system: BM-MSCs (CD45−/CD29+/Sca1+); assay: Total cell count with flow cytometry, BM-MSC cultures; assay type: cell-based, mouse
Procedure: as §1, §2

[5] = system: mouse BM-derived cells (MSC colonies); assay: Mouse BM-derived CFU-F assay; assay type: cell-based; settings: 14 days
Procedure: a. Mouse BM and CB-Derived CFU-F Assay • 1. […] Medium was removed cultures washed with 2 mL PBS. • 4. Cells were fixed by adding 2 mL methanol/well and incubated at room temperature for 5 minutes. • 5. Methanol was removed and plates allowed to air dry for 5 minutes. • 6. To each well, 2 mL Toluidine blue solution was added and incubated for 30 minutes at room temperature. • 7. Toluidine blue solution was removed and wells rinsed with water. • 8. Water was removed and plates allowed to dry. • 9. Colony formation was assessed by enumeration and colony size. Mouse BM-derived cells were isolated as described previously and CFU-F assays setup as described above. […] Cultures were then stained with Toluidine blue and colony formation and appearance assessed. Three independent assays CFU-F assays for both BM- and CB-MSC were setup as in Example 4a and 4b. […] These assays were maintained for 14 days without media change. At the end of day 14, cultures were fixed and stained with toluidine blue and the number of MSC colonies counted.

[6] = CB-MSCs, 2.5 uM GW2580, 14 days during P0
[7] = BM-MSCs, 2.5 uM GW2580, 14 days during P0
[8] = BM-MSC, assay 1, 1 uM GW2580, 1.0 × 10^6 cells plated
[9] = BM-MSC, assay 1, 1 uM GW2580, 2.5 × 10^5 cells plated
[10] = BM-MSC, assay 1, 1 uM GW2580, 5.0 × 10^5 cells plated
[11] = BM-MSC, assay 1, 1 uM GW2580, Sum of the three densities
[12] = BM-MSC, assay 2, 2.5 uM GW2580, 1.0 × 10^6 cells plated
[13] = BM-MSC, assay 2, 2.5 uM GW2580, 2.5 × 10^5 cells plated
[14] = BM-MSC, assay 2, 2.5 uM GW2580, 5.0 × 10^5 cells plated
[15] = BM-MSC, assay 2, 2.5 uM GW2580, Sum of the three densities
[16] = BM-MSC, assay 3, 2.5 uM GW2580, 1.0 × 10^6 cells plated
[17] = BM-MSC, assay 3, 2.5 uM GW2580, 2.5 × 10^5 cells plated
[18] = BM-MSC, assay 3, 2.5 uM GW2580, 5.0 × 10^5 cells plated
[19] = BM-MSC, assay 3, 2.5 uM GW2580, Sum of the three densities

For COc1ccc(COc2ccc(Cc3cnc(N)nc3N)cc2OC)cc1 [GW2580, 5-(3-Methoxy-4-((4-methoxybenzyl)oxy)benzyl)pyrimidine-2,4-diamine], the “activity against 26 other kinases tested” value (26 other kinases) is listed as “inactive”, the “adipogenic and osteogenic differentiation (Oil Red O, ALP/mineralization)” value (mouse CB-MSC cultures; CB-MSC, 2.5 uM for 2 passages, plated at 4.0×10^4 cells/cm^2, 14 days) is listed as “substantial adipogenic and osteogenic differentiation” and the “differentiation into osteogenic and adipogenic lineages vs control cultures” value (mouse CB-MSC cultures; mouse CB-MSC exposed to GW2580 during expansion) is listed as “stronger and more robust differentiation”. For the same compound, the “increase in number of CD45−/CD29+/Sca1+ MSCs vs control” value ([1]; CB-MSC, 2.5 uM GW2580) was 310%, the “Actual number of cells, CD45−” value [1, 6] was 530,702 and the “Actual number of cells, CD45−/CD29+/Scal+” value [1, 6] was 507,616. The “CD45−, Percent (Flow Cytometry)” value [1, 6] was 95.45%, the total cells [1, 6] was 5.56E+05 and the “CD45−/CD29+/Scal+, Percent (Flow Cytometry)” value ([1]; CB-MSCs, 2.5 uM GW2580, 14 days during P0, out of CD45− gate) was 95.65%. The “macrophage contamination and MSC enrichment (images)” value ([2]; 1 μM continuous P0-P3) was “have reduced numbers of macrophages; also recorded: contain a much reduced number of these contaminating macrophages”, the “macrophage contamination and MSC enrichment (images)” value ([2]; 1 μM, P2) was “a much reduced number of macrophages is observed; also recorded: enriched and mostly devoid of macrophage contamination” and the “macrophage contamination and MSC appearance (images)” value ([2]; BM, 1, 5 and 10 μM) was “have reduced numbers of contaminating macrophages; also recorded: a noticeable decrease in macrophages was noticed”. The “adipogenic and osteogenic differentiation vs control-expanded cultures” value (human BM-derived MSCs) was “differentiated equally well”, the “macrophage contamination and MSC enrichment (images)” value ([3]; 1 μM continuous P0-P3) was “have reduced numbers of macrophages; also recorded: contain a much reduced number of these contaminating macrophages” and the “macrophage contamination and MSC enrichment (images)” value ([3]; 1 μM, P2) was “a much reduced number of macrophages is observed; also recorded: enriched and mostly devoid of macrophage contamination”. The “macrophage contamination and MSC appearance (images)” value ([3]; CB, 1, 5 and 10 μM) was “have reduced numbers of contaminating macrophages; also recorded: a noticeable decrease in macrophages was noticed”, the “actual increase in BM-MSCs (CD45−/CD29+/Sca1+) vs control” value ([4]; BM-MSC, 2.5 uM GW2580) was 0.25 fold and the “increase in number of CD45−/CD29+/Sca1+ MSCs vs control” value ([4]; BM-MSC, 2.5 uM GW2580) was 26%. The “Actual number of cells, CD45−” value [4, 7] was 665,331, the “Actual number of cells, CD45−/CD29+/Scal+” value [4, 7] was 639,450 and the “CD45−, Percent (Flow Cytometry)” value [4, 7] was 70.48%. The total cells [4, 7] was 9.44E+05, the “CD45−/CD29+/Scal+, Percent (Flow Cytometry)” value ([4]; BM-MSCs, 2.5 uM GW2580, 14 days during P0, out of CD45− gate) was 96.11% and the “overall minimal increase in number of MSC colonies vs control” value ([5]; BM-MSC, 1 or 2.5 uM, three assays) was no less than 20%. The “% increase in number of MSC colonies vs control” value (shortened to “% increase in number”) [5, 8] was 26%, the “Number of MSC colonies” value [5, 8] was 227 and the “% increase in number” value [5, 9] was 26%. The “Number of MSC colonies” value [5, 9] was 103, the “% increase in number” value [5, 10] was 44% and the “Number of MSC colonies” value [5, 10] was 201. The “% increase in number” value [5, 11] was 32%, the “Number of MSC colonies” value [5, 11] was 531 and the “% increase in number” value [5, 12] was 21%. The “Number of MSC colonies” value [5, 12] was 34, the “% increase in number” value [5, 13] was 0% and the “Number of MSC colonies” value [5, 13] was 3. The “% increase in number” value [5, 14] was 109%, the “Number of MSC colonies” value [5, 14] was 23 and the “% increase in number” value [5, 15] was 40%. The “Number of MSC colonies” value [5, 15] was 60, the “% increase in number” value [5, 16] was 50% and the “Number of MSC colonies” value [5, 16] was 60. The “% increase in number” value [5, 17] was 67%, the “Number of MSC colonies” value [5, 17] was 5 and the “% increase in number” value [5, 18] was 70%. The “Number of MSC colonies” value [5, 18] was 17, the “% increase in number” value [5, 19] was 55% and the “Number of MSC colonies” value [5, 19] was 82. For the same compound, the “increase in colony number compared to control cultures” value ([5]; BM-derived, 1 μM) was “at least 20%” and the “MSC CFU-F appearance (colony size, macrophages)” value ([5]; BM-derived, 1 μM, Toluidine blue) was “bigger in size and have a much reduced number of macrophages; also recorded: larger, enriched MSC CFU-F that are mostly free of macrophages”.
